# Experimental data from patent US20250019350A1, “SYNTHESIS OF THE PROSTATE SPECIFIC MEMBRANE ANTIGEN (PSMA) RADIOLABELED INHIBITOR [18F]DCFPYL” (Progenics Pharmaceuticals, Inc, priority 2023, published 2025).
# Values joined by “and” are separate entries in the source; they are usually repeats but may differ in a detail not shown here. Equal entries are not always repeated.
# Test: Radiolysis / stability of [18F]DCFPyL over time by HPLC with radiodetection (RCP, free 18F, radioactive impurities)
# Format: physicochemical
# Experimental: Those of ordinary skill in the art will be aware of techniques and systems for determining the radiochemical purity of a composition. In some cases, the radiochemical purity is determined using an HPLC associated with a radio-detector. Generally, the radiochemical purity is determined under ambient conditions (e.g., ambient temperature, ambient humidity, ambient light, etc.), such as in samples stored under such conditions.
# Stability was assessed using reverse phase HPLC on a C18 column with a phosphate buffer/acetonitrile gradient mobile phase, and the elution profile was monitored using both UV and radiochemical detectors. Samples were analyzed either by direct injection onto the HPLC, dilution and injection or including the addition of tetraethylammonium fluoride (TEAF) into the sample before injection.
# Known amounts of free ^18F either alone or spiked with TEAF were injected onto the analytic column and the eluent from the column collected over the course of a chromatogram and assaying the radioactivity using a Capintec. […] Adding TEAF into the analytic samples was incorporated into subsequent studies examining potential radiolysis of [^18F]DCFPyL to overcome some of the limitations of free ^18F quantification.
# Analytical HPLC method was used. The method employs UV detection at 264 nm for chemical impurities, and an Eckert & Ziegler model B-FC-1000 gamma detector for radiochemical assays.
# [1] = 110 mCi/mL in 50 mg/mL pH 5.8 ascorbic acid, T = 3.0 h
# [2] = 110 mCi/mL in 50 mg/mL pH 5.8 ascorbic acid, T = 3.5 h
# [3] = 110 mCi/mL in 50 mg/mL pH 5.8 ascorbic acid, T = 4.0 h
# [4] = 147 mCi/mL in 0.9% Sodium Chloride, USP, no ascorbic acid, T = 0 h
# [5] = 147 mCi/mL in 0.9% Sodium Chloride, USP, no ascorbic acid, T = 0.5 h
# [6] = 147 mCi/mL in 0.9% Sodium Chloride, USP, no ascorbic acid, T = 1.0 h
# [7] = 147 mCi/mL in 0.9% Sodium Chloride, USP, no ascorbic acid, T = 1.5 h
# [8] = 147 mCi/mL in 0.9% Sodium Chloride, USP, no ascorbic acid, T = 2.0 h
# [9] = 147 mCi/mL in 0.9% Sodium Chloride, USP, no ascorbic acid, T = 2.5 h
# [10] = 147 mCi/mL in 0.9% Sodium Chloride, USP, no ascorbic acid, T = 3.0 h
# [11] = 147 mCi/mL in 0.9% Sodium Chloride, USP, no ascorbic acid, T = 3.5 h
# [12] = 147 mCi/mL in 0.9% Sodium Chloride, USP, no ascorbic acid, T = 4.0 h
# [13] = T = 0/1, 50 mg/mL ascorbic acid pH 5.8, 20% ethanol, 106.5 mCi/mL at EOS
# [14] = T = 0, 0.5 mg/mL ascorbic acid pH 5.8, 20% ethanol, 105.8 mCi/mL at EOS
# [15] = T = 0, 1 mg/mL ascorbic acid pH 5.8, 20% ethanol, 107.0 mCi/mL at EOS
# [16] = T = 0, 5 mg/mL ascorbic acid pH 5.8, 20% ethanol, 99.0 mCi/mL at EOS
# [17] = T = 0, 20 mg/mL sodium citrate, 20% ethanol, 104.8 mCi/mL at EOS, MPA = 0.25% of main peak
# [18] = T = 0, 50 mg/mL ascorbic acid pH 5.8, 20% ethanol, 139.7 mCi/mL at EOS
# [19] = T = 0 hr, 50 mg/mL ascorbic acid pH 5.8 in final product vial, 20% ethanol, 110 mCi/mL at EOS
# [20] = T = 0 hr, 100 mg/mL ascorbic acid pH 2.0, 256 mCi/mL at EOS
# [21] = T = 0 hr, 20% ethanol in saline, 52 mCi/mL at EOS
# [22] = T = 0 hr, 20% ethanol in saline, 65 mCi/mL at EOS
# [23] = T = 0 hr, 20% ethanol in saline, 85 mCi/mL at EOS
# [24] = T = 0 hr, 100% ethanol, 325 mCi/mL at EOS
# [25] = T = 0 hr, control without ascorbic acid, 36% ethanol in saline, 147 mCi/mL at EOS
# [26] = T = 3, 50 mg/mL ascorbic acid pH 5.8, 20% ethanol, 106.5 mCi/mL at EOS
# [27] = T = 4, 50 mg/mL ascorbic acid pH 5.8, 20% ethanol, 106.5 mCi/mL at EOS
# [28] = T = 6, 50 mg/mL ascorbic acid pH 5.8, 20% ethanol, 106.5 mCi/mL at EOS
structure (smiles),measurement,setting,value
"O=C(O)CC[C@H](NC(=O)N[C@@H](CCCCNC(=O)c1ccc([18F])nc1)C(=O)O)C(=O)O [Lot 18F-DCFPyL, 2-(3-{1-carboxy-5-[(6-[18F]fluoro-pyridine-3-carbonyl)-amino]-pentyl}ureido)-pentanedioic acid]",free 18F accumulating over 4 hrs,"50 mg/mL ascorbic acid pH 5.8, 20% ethanol, 111 mCi/mL at EOS",0.26%
same,free 18F accumulating over 4 hrs,"100 mg/mL ascorbic acid pH 2.0, 256 mCi/mL at EOS",0.08%
same,18F-DCFPyL,"110 mCi/mL in 50 mg/mL pH 5.8 ascorbic acid, T = 0 h",99.73 area %
same,18F-DCFPyL,"110 mCi/mL in 50 mg/mL pH 5.8 ascorbic acid, T = 0.5 h",99.72 area %
same,18F-DCFPyL,"110 mCi/mL in 50 mg/mL pH 5.8 ascorbic acid, T = 1.0 h",96.74 area %
same,18F-DCFPyL,"110 mCi/mL in 50 mg/mL pH 5.8 ascorbic acid, T = 1.5 h",99.66 area %
same,18F-DCFPyL,"110 mCi/mL in 50 mg/mL pH 5.8 ascorbic acid, T = 2.0 h",99.76 area %
same,18F-DCFPyL,"110 mCi/mL in 50 mg/mL pH 5.8 ascorbic acid, T = 2.5 h",99.66 area %
same,18F-DCFPyL,[1],99.30 area %
same,Free 18F,[1],0.35 area %
same,18F-DCFPyL,[2],99.46 area %
same,Free 18F,[2],0.24 area %
same,18F-DCFPyL,[3],99.43 area %
same,Free 18F,[3],0.26 area %
same,18F-DCFPyL,[4],94.17 area %
same,Free 18F,[4],4.68 area %
same,18F-DCFPyL,[5],90.65 area %
same,Free 18F,[5],7.73 area %
same,18F-DCFPyL,[6],90.71 area %
same,Free 18F,[6],7.69 area %
same,18F-DCFPyL,[7],89.59 area %
same,Free 18F,[7],8.78 area %
same,18F-DCFPyL,[8],89.50 area %
same,Free 18F,[8],8.67 area %
same,18F-DCFPyL,[9],88.79 area %
same,Free 18F,[9],9.66 area %
same,18F-DCFPyL,[10],88.94 area %
same,Free 18F,[10],9.49 area %
same,18F-DCFPyL,[11],88.90 area %
same,Free 18F,[11],9.56 area %
same,18F-DCFPyL,[12],89.06 area %
same,Free 18F,[12],9.27 area %
same,Free 18F,"256 mCi/mL in ethanol, ascorbic acid in process, T = 0 h",0.29 area %
same,Free 18F,"256 mCi/mL in ethanol, ascorbic acid in process, T = 0.5 h",0.40 area %
same,Free 18F,"256 mCi/mL in ethanol, ascorbic acid in process, T = 1.0 h",0.31 area %
same,Free 18F,"256 mCi/mL in ethanol, ascorbic acid in process, T = 1.5 h",0.31 area %
same,Free 18F,"256 mCi/mL in ethanol, ascorbic acid in process, T = 2.0 h",0.31 area %
same,Free 18F,"256 mCi/mL in ethanol, ascorbic acid in process, T = 2.5 h",0.31 area %
same,Free 18F,"256 mCi/mL in ethanol, ascorbic acid in process, T = 3.0 h",0.29 area %
same,Free 18F,"256 mCi/mL in ethanol, ascorbic acid in process, T = 3.5 h",0.42 area %
same,Free 18F,"256 mCi/mL in ethanol, ascorbic acid in process, T = 4.0 h",0.40 area %
same,18F-DCFPyL,"256 mCi/mL in ethanol, 100 mg/mL pH 2.0 ascorbic acid in collection vial and HLB wash, T = 0 h",99.71 area %
same,18F-DCFPyL,"256 mCi/mL in ethanol, 100 mg/mL pH 2.0 ascorbic acid in collection vial and HLB wash, T = 0.5 h",99.60 area %
same,18F-DCFPyL,"256 mCi/mL in ethanol, 100 mg/mL pH 2.0 ascorbic acid in collection vial and HLB wash, T = 1.0 h",98.68 area %
same,18F-DCFPyL,"256 mCi/mL in ethanol, 100 mg/mL pH 2.0 ascorbic acid in collection vial and HLB wash, T = 1.5 h",98.58 area %
same,18F-DCFPyL,"256 mCi/mL in ethanol, 100 mg/mL pH 2.0 ascorbic acid in collection vial and HLB wash, T = 2.0 h",98.20 area %
same,18F-DCFPyL,"256 mCi/mL in ethanol, 100 mg/mL pH 2.0 ascorbic acid in collection vial and HLB wash, T = 2.5 h",98.71 area %
same,18F-DCFPyL,"256 mCi/mL in ethanol, 100 mg/mL pH 2.0 ascorbic acid in collection vial and HLB wash, T = 3.0 h",98.46 area %
same,18F-DCFPyL,"256 mCi/mL in ethanol, 100 mg/mL pH 2.0 ascorbic acid in collection vial and HLB wash, T = 3.5 h",97.96 area %
same,18F-DCFPyL,"256 mCi/mL in ethanol, 100 mg/mL pH 2.0 ascorbic acid in collection vial and HLB wash, T = 4.0 h",97.95 area %
same,RCP,"4 hours, 5 mg/mL ascorbate pH 6 FPV prefill and 6 mg/mL pH 6 ascorbate as delivery solution",98%
same,RCP,"4 hours, 10 mg/mL pH 6 ascorbate in collection vial and 5 mg/mL pH 6 ascorbic acid in final product vial",99%
same,% RCP,"10 hours, 3.3 mg/mL ascorbic acid in FPV, 10 mg/mL pH 2 in collection vial",97%
same,RCP,"10 hours, 5 mg/mL, pH 6 ascorbate in the final product",96%
same,% RCP,"10 hours, 5.6 mg/mL ascorbic acid in FPV, 10 mg/mL pH 2 in collection vial",98%
same,% RCP,"10 hours, 7.8 mg/mL ascorbic acid in FPV, 10 mg/mL pH 2 in collection vial",97%
same,RCP,"10 hours, pH 2 ascorbate in collection vial, 5 mg/mL ascorbate pH 6 in FPV",98%
same,% RCP,"10 hours, pH 4.5",98%
same,% RCP,"10 hours, pH 5.5",97%
same,% RCP,"10 hours, pH 7.0",97%
same,18F-DCFPyL (% RCP),[13],100.00%
same,Free F-18,[13],0.00%
same,18F-DCFPyL (% RCP),[14],100.00%
same,Free F-18,[14],0.00%
same,18F-DCFPyL (% RCP),[15],99.68%
same,Free F-18,[15],0.32%
same,Free F-18,"T = 0, 1 mg/mL sodium ascorbate, 20% ethanol, 111.5 mCi/mL at EOS",0.57%
same,18F-DCFPyL (% RCP),[16],100.00%
same,Free F-18,[16],0.00%
same,Free F-18,"T = 0, 20 mg/mL sodium citrate, 20% ethanol, 104.8 mCi/mL at EOS",10.22%
same,RT 3.4 radioactive impurity,[17],<MPA
same,RT 3.7 radioactive impurity,[17],<MPA
same,18F-DCFPyL (% RCP),[18],100.00%
same,Free F-18,[18],0.00%
same,RT 4.8 radioactive impurity,"T = 0, 50 mg/mL ascorbic acid pH 5.8, 20% ethanol, 139.7 mCi/mL at EOS, MPA = 0.25% of main peak",<MPA
same,18F-DCFPyL (RCP),[19],99.7% and 99.73%
same,Free 18F,[19],< LLQ
same,RT 5.0 radioactive impurity,[19],0.27%
same,18F-DCFPyL (RCP),"T = 0 hr, 50 mg/mL ascorbic acid pH 5.8 in final product vial, 20% ethanol, 110 mCi/mL at EOS, listed as [^18F]DCFPYL",99.7%
same,18F-DCFPyL (RCP),[20],99.7% and 99.71%
same,Free 18F,[20],0.29%
same,18F-DCFPyL (RCP),"T = 0 hr, 100 mg/mL ascorbic acid pH 2.0, 256 mCi/mL at EOS, listed as [^18F]DCFPYL",99.7%
same,18F-DCFPyL (RCP),[21],99.31%
same,Free F-18,[21],0.23%
same,RT 5.0 radioactive impurity,[21],0.46%
same,18F-DCFPyL (RCP),[22],98.75%
same,Free F-18,[22],0.91%
same,RT 5.0 radioactive impurity,[22],0.34%
same,18F-DCFPyL (RCP),[23],97.56%
same,Free F-18,[23],2.10%
same,RT 5.0 radioactive impurity,[23],0.34%
same,18F-DCFPyL (RCP),[24],98.37%
same,Free F-18,[24],1.63%
same,18F-DCFPyL (RCP),[25],94% and 94.17%
same,Free F-18,[25],4.68%
same,RT 5.0 radioactive impurity,[25],0.50%
same,RT 5.9 radioactive impurity,[25],0.64%
same,18F-DCFPyL (RCP),"T = 0 hr, control without ascorbic acid, 36% ethanol in saline, 147 mCi/mL at EOS, listed as [^18F]DCFPYL",94%
same,Free F-18,"T = 0.5, 5 mg/mL sodium ascorbate, 20% ethanol, 114.6 mCi/mL at EOS",0.39%
same,18F-DCFPyL (% RCP),[26],100.00%
same,Free F-18,[26],0.00%
same,18F-DCFPyL (% RCP),[27],99.75%
same,Free F-18,[27],0.25%
same,18F-DCFPyL (% RCP),[28],99.72%
same,Free F-18,[28],0.28%
